Among the data in patent publication US4394375A, “Cephalosporin derivatives, and compositions containing them” (Beecham Group Limited, priority 1980, dated 1983) are MIC values, retold here.

The structures appear in SMILES notation. In brackets after ≈: the same amount, converted by molar mass. Like-named read-outs stand apart in the source and are kept apart here. Some results are limits rather than exact numbers.

Common to all, as to type: cell-based
One assay concerns E. coli NCTC 10418. The assay is described as follows: MIC, E. coli NCTC 10418. The note with it: Escherichia coli, NCTC10418.
Another assay relates to E. coli ESS. The assay is described as follows: MIC, E. coli ESS. To be noted: Escherichia coli.
The next assay concerns E. cloacae Nl. The assay can be described thus: MIC, E. cloacae Nl. The note with it: Enterobacter cloacae.
In another assay the test system is S. pyogenes CN 10. The assay is described as follows: MIC, S. pyogenes CN 10. To be noted: Streptococcus pyogenes, CN10.
The test system of the next assay is S. faecalis I. The assay is described as follows: MIC, S. faecalis I. To be noted: Enterococcus faecalis.
Another assay concerns E. coli JT 4. The assay can be described thus: MIC, E. coli JT 4. The note with it: Escherichia coli, JT4.
The next assay relates to B. subtilis. The assay is described as follows: MIC, B. subtilis. The note with it: Bacillus subtilis.
In a further assay the test system is Ps aeruginosa Dalgleish. The assay can be described thus: MIC, Ps aeruginosa Dalgleish. To be noted: Ps aeruginosa Dalgleish 10^-2.
The subject of a further assay is S. aureus Russell. The assay is described as follows: MIC, S. aureus Russell. The note with it: Staphylococcus aureus.
The subject of the next assay is S. aureus Oxford. The assay can be described thus: MIC, S. aureus Oxford. The note with it: Staphylococcus aureus.
The subject of another assay is P. morganii. The assay is described as follows: MIC, P. morganii. The note with it: Morganella morganii.
For another assay, the system named is E. coli JT 425. The assay can be described thus: MIC, E. coli JT 425. The note with it: Escherichia coli, JT425.
In the next assay the test system is S. marcescens US 32. The assay is described as follows: MIC, S. marcescens US 32. The note with it: Serratia marcescens, US32.
The test system of another assay is N. catarrhalis 1502. The assay is described as follows: MIC, N. catarrhalis 1502.
A further assay concerns P. mirabilis 889. The assay is described as follows: MIC, P. mirabilis 889. To be noted: Proteus mirabilis.
Another assay has as its system P. rettgeri. The assay can be described thus: MIC, P. rettgeri. To be noted: Providencia rettgeri.
The next assay concerns P. mirabilis C 977. The assay is described as follows: MIC, P. mirabilis C 977. To be noted: Proteus mirabilis, C977.
The next assay deals with Ps aeruginosa NCTC 10662. The assay is described as follows: MIC, Ps aeruginosa NCTC 10662.
For a further assay, the system named is K. aerogenes A. The assay is described as follows: MIC, K. aerogenes A. The note with it: Klebsiella aerogenes.
[1] abbreviates: Ps aeruginosa NCTC 10662, read-out: MIC.

The term MIC denotes the least concentration at which growth counts as inhibited.

As to `CCN1CCN(C(=O)N[C@@H](C(=O)N[C@]2(CO)C(=O)N3C(C(=O)O)=C(COC(C)=O)CS[C@@H]32)c2ccccc2)C(=O)C1=O` [Example 1d, Sodium 7β-[2(4-ethyl-2,3-dioxpiperazine-1-carbonylamino)]phenylacetamido-7α-hydroxymethylcephalosporanate], the minimal inhibitory concentration (MIC) is 2.5 µg/mL in the assay with E. coli NCTC 10418; less than 0.02 µg/mL with E. coli ESS; 10 µg/mL in the assay on E. cloacae Nl; 100 µg/mL against S. pyogenes CN 10; greater than 100 µg/mL against S. faecalis I; 5 µg/mL in the assay on E. coli JT 4. For the same compound, the minimal inhibitory concentration (MIC) against B. subtilis is greater than 100 µg/mL; in the assay with Ps aeruginosa Dalgleish, greater than 100 µg/mL; in the assay on S. aureus Russell, greater than 100 µg/mL; in the assay with S. aureus Oxford, greater than 100 µg/mL; in the assay with P. morganii, 10 µg/mL; against E. coli JT 425, 2.5 µg/mL. Further, the MIC was 5 µg/mL in the assay with S. marcescens US 32; 0.2 µg/mL in the assay with N. catarrhalis 1502; 1 µg/mL in the assay with P. mirabilis 889; 10 µg/mL in the assay with P. rettgeri; 2.5 µg/mL with P. mirabilis C 977; greater than 100 µg/mL against Ps aeruginosa NCTC 10662 (Ps aeruginosa NCTC 10662 10^-2). The results for the minimal inhibitory concentration (MIC) with Ps aeruginosa NCTC 10662 (setting [1]) and in the assay on K. aerogenes A were greater than 100 µg/mL and 0.5 µg/mL, respectively.

For the compound `CCN1CCN(C(=O)N[C@@H](C(=O)N[C@]2(CO)C(=O)N3C(C(=O)O)=C(COC(C)=O)CS[C@@H]32)c2ccc(O)cc2)C(=O)C1=O` [Example 3b, Sodium 7β-[2-(4-ethyl-2,3-dioxopiperazine-1-carbonylamino)-2-(4-hydroxyphenyl)acetamido]-7α-hydroxymethylcephalosporanate], the MIC is 1 µg/mL against E. coli NCTC 10418; 0.05 µg/mL in the assay on E. coli ESS; 10 µg/mL in the assay on E. cloacae Nl; greater than 100 µg/mL with S. pyogenes CN 10; greater than 100 µg/mL in the assay with S. faecalis I; 2.5 µg/mL against E. coli JT 4. Moreover, the MIC is greater than 100 µg/mL against B. subtilis; 25 µg/mL with Ps aeruginosa Dalgleish; greater than 100 µg/mL against S. aureus Russell; greater than 100 µg/mL in the assay with S. aureus Oxford; 10 µg/mL against P. morganii; 1 µg/mL in the assay with E. coli JT 425. The minimal inhibitory concentration (MIC) against S. marcescens US 32 turned out to be 5 µg/mL; with N. catarrhalis 1502 it was 0.5 µg/mL; in the assay on P. mirabilis 889 it was 0.5 µg/mL; against P. rettgeri, 10 µg/mL; in the assay with P. mirabilis C 977, 2.5 µg/mL; against Ps aeruginosa NCTC 10662 (Ps aeruginosa NCTC 10662 10^-2), 50 µg/mL. Moreover, the figures for the minimum inhibitory concentration (MIC) in the assay with Ps aeruginosa NCTC 10662 (setting [1]) and against K. aerogenes A were 50 µg/mL and 0.25 µg/mL, respectively.

Take `CCN1CCN(C(=O)N[C@@H](C(=O)N[C@]2(CO)C(=O)N3C(C(=O)O)=C(CSc4nnnn4C)CS[C@@H]32)c2ccccc2)C(=O)C1=O` [Example 4, 7β-[2(4-Ethyl-2,3-dioxopiperazine-1-carbonylamino)-2-phenylacetamido]-7α-hydroxymethyl-3-(1-methyl-1H-tetrazol-5-ylthio)methylceph-3-em-4-carboxylic acid]: the MIC was 1 µg/mL (≈ 1.52 µM) against E. coli NCTC 10418; less than 0.02 µg/mL with E. coli ESS; 25 µg/mL (≈ 37.9 µM) against E. cloacae Nl; 5 µg/mL (≈ 7.58 µM) in the assay on E. coli JT 4; 100 µg/mL (≈ 152 µM) against Ps aeruginosa Dalgleish; 10 µg/mL (≈ 15.2 µM) in the assay with P. morganii. Moreover, the minimum inhibitory concentration (MIC) is 1 µg/mL (≈ 1.52 µM) against E. coli JT 425; 5 µg/mL (≈ 7.58 µM) against S. marcescens US 32; 2.5 µg/mL (≈ 3.79 µM) against P. mirabilis 889; 25 µg/mL (≈ 37.9 µM) in the assay with P. rettgeri; 5 µg/mL (≈ 7.58 µM) in the assay on P. mirabilis C 977; greater than 100 µg/mL against Ps aeruginosa NCTC 10662 (Ps aeruginosa NCTC 10662 10^-2). The minimum inhibitory concentration (MIC) in the assay on Ps aeruginosa NCTC 10662 (setting [1]) is greater than 100 µg/mL; against K. aerogenes A, 0.2 µg/mL (≈ 0.303 µM).
